Tests used:
vcFabH1 = vcFabH1 (Vibrio cholerae serotype O1, UniProt Q9KQH5); experiment: biochemical; type: biochemical; conditions: for Reaction rate relative to that of acetyl-CoA: pH 7.5
vcFabH2 (C113A) = vcFabH2 (C113A) (Vibrio cholerae serotype O1, UniProt Q9KLJ3, C113A); type: binding; conditions: for Binding sites/molecule (Stoichiometry): pH 7.5
vcFabH2 (C356A) = vcFabH2 (C356A) (Vibrio cholerae serotype O1, UniProt Q9KLJ3, C356A); type: binding
vcFabH2 = vcFabH2 (Vibrio cholerae serotype O1, UniProt Q9KLJ3); experiment: biochemical; type: biochemical

SMILES | Hill coefficient n (vcFabH1) | Kd (vcFabH1) [µM] | Vmax (maximum activity) (vcFabH1) [μmol∙min^−1∙μmol^−1] | ΔH (vcFabH2 (C113A)) [kcal/mol] | ΔS (vcFabH2 (C113A)) [cal∙mol^−1∙K^−1] | Binding sites/molecule (Stoichiometry) (vcFabH2 (C113A)) | Binding sites/molecule (Stoichiometry) (vcFabH2 (C356A)) | ΔH (vcFabH2 (C356A)) [kcal/mol] | ΔS (vcFabH2 (C356A)) [cal∙mol^−1∙K^−1] | Reaction rate relative to that of acetyl-CoA (vcFabH1) | Hill coefficient n (vcFabH2) | Kd (vcFabH2) [µM] | Vmax (maximum activity) (vcFabH2) [μmol∙min^−1∙μmol^−1]
CC(=O)SCCNC(=O)CCNC(=O)[C@H](O)C(C)(C)COP(=O)(O)OP(=O)(O)OC[C@H]1O[C@@H](n2cnc3c(N)ncnc32)[C@H](O)[C@@H]1OP(=O)(O)O [Acetyl-CoA] | 1.6±0.2 | 21.2 ± 2.9 | 14.0±1.1 | -14.49 | −34.70 | 0.69 ± 0.05 | – | – | – | – | – | – | –
CCCC(=O)SCCNC(=O)CCNC(=O)[C@H](O)C(C)(C)COP(=O)(O)OP(=O)(O)OC[C@H]1O[C@@H](n2cnc3c(N)ncnc32)[C@H](O)[C@@H]1OP(=O)(O)O [Butyryl-CoA] | – | – | – | -8.259 | −12.00 | 0.87 ± 0.03 | – | – | – | – | – | – | –
CCCCCCCCCC(=O)SCCNC(=O)CCNC(=O)[C@H](O)C(C)(C)COP(=O)(O)OP(=O)(O)OC[C@H]1O[C@@H](n2cnc3c(N)ncnc32)[C@H](O)[C@@H]1OP(=O)(O)O [Decanoyl-CoA] | – | – | – | -7.457 | −4.24 | 1.36 ± 0.01 | 1 | -11.68 | −25.30 | – | – | – | –
CCCCCC(=O)SCCNC(=O)CCNC(=O)[C@H](O)C(C)(C)COP(=O)(O)OP(=O)(O)OC[C@H]1O[C@@H](n2cnc3c(N)ncnc32)[C@H](O)[C@@H]1OP(=O)(O)O [Hexanoyl-CoA] | – | – | – | -11.78 | −22.10 | 0.878 ± 0.004 | 1 | -1.847 | 8.50 | lower than 20% | – | – | –
CC(C)C(=O)SCCNC(=O)CCNC(=O)[C@H](O)C(C)(C)COP(=O)(O)OP(=O)(O)OC[C@H]1O[C@@H](n2cnc3c(N)ncnc32)[C@H](O)[C@@H]1OP(=O)(O)O [Isobutyryl-CoA] | – | – | – | -8.57 | −13.00 | 0.77 ± 0.18 | – | – | – | – | – | – | –
CC(C)CC(=O)SCCNC(=O)CCNC(=O)[C@H](O)C(C)(C)COP(=O)(O)OP(=O)(O)OC[C@H]1O[C@@H](n2cnc3c(N)ncnc32)[C@H](O)[C@@H]1OP(=O)(O)O [Isovaleryl-CoA] | – | – | – | -9.347 | −16.20 | 0.74 ± 0.03 | – | – | – | lower than 20% | – | – | –
CCCCCCCCCCCC(=O)SCCNC(=O)CCNC(=O)[C@H](O)C(C)(C)COP(=O)(O)OP(=O)(O)OC[C@H]1O[C@@H](n2cnc3c(N)ncnc32)[C@H](O)[C@@H]1OP(=O)(O)O [Lauroyl-CoA] | – | – | – | -6.563 | −4.60 | 1.38 ± 0.02 | – | – | – | – | – | – | –
CCCCCCCC(=O)SCCNC(=O)CCNC(=O)[C@H](O)C(C)(C)COP(=O)(O)OP(=O)(O)OC[C@H]1O[C@@H](n2cnc3c(N)ncnc32)[C@H](O)[C@@H]1OP(=O)(O)O [Octanoyl-CoA] | – | – | – | -12.67 | −22.30 | 0.90 ± 0.01 | 1 | -3.414 | 4.43 | lower than 20% | 1.8±0.2 | 24.2 ± 2.2 | 18.0±1.1

Reference: article PMC6105497 (The FEBS journal, 2018)
